SMILES strings stand for the structures.

1 compound from ChEMBL document CHEMBL5653627 (J Neurochem, 2017) can be followed below.

Holding throughout (format): functional
The subject of test [1] is SMA-560. Briefly: Induction of apoptosis in mouse SMA-560 cells assessed as late apoptotic cells incubated for 72 hrs by Annexin V-FITC/PI staining based flow cytometric analysis (reference value: 1.83%).
In test [2] the test system is SMA-560. Briefly: Induction of apoptosis in mouse SMA-560 cells assessed as early apoptotic cells incubated for 72 hrs by Annexin V-FITC/PI staining based flow cytometric analysis (reference value: 0.0056%). On the technique in general: In flow cytometry, cells or beads pass a laser one at a time.
Test [3] concerns SMA-560. Briefly: Induction of apoptosis in mouse SMA-560 cells assessed as live cells incubated for 72 hrs by Annexin V-FITC/PI staining based flow cytometric analysis (reference value: 84.6%).

On to `CN[C@@H]1C[C@H]2O[C@@](C)([C@@H]1OC)n1c3ccccc3c3c4c(c5c6ccccc6n2c5c31)C(=O)NC4` [STAUROSPORINE], for which the Activity in the test on SMA-560 [1] turned out to be 87.7%; in the test on SMA-560 [2], 0%; in the test with SMA-560 [3] it was 1.29%.
